This is an account of results in article PMC12586182 (Frontiers in Oncology, 2025).

Several values for one entry are separate records, joined by “and”; a condition that tells them apart may be missing. Equal values may be shown once. Entries after “also recorded” stand apart in the source; their conditions may differ. Read-outs that look alike come from different tables or passages of the source.

For orientation: IC50 means the concentration needed to halve the response being measured. A word on the Kd: it is the constant that tells how readily two partners part at equilibrium.

The target of series [1] is T1, MEK1 (Homo sapiens, UniProt Q02750).
T1 construct: purchased Carna Biosciences, Inc. 07–41
Kind of series: Kinase enzyme activity assay (ELISA, in-house). It is filed as biochemical. Background: An ELISA detects its analyte on a solid surface through an enzyme-linked reagent.

For series [2], the system named is panel of 160 human cancer cell lines. As to the kind of experiment: Cancer cell panel profiling in cell viability assays (ATPlite). The format is cell-based. The source says:
A panel of 160 cancer cell lines was used in this study. […]. Cell lines were purchased from the American Type Culture Collection (ATCC) (Manassas, VA, USA), the German Collection of Microorganisms and Cell Cultures (DSMZ) (Braunschweig, Germany), the RIKEN BioResource Research Center (Tsukuba, Ibaraki, Japan) or the Japanese Collection of Research Bioresources (JCRB) (Ibaraki City, Osaka, Japan). All cell lines were propagated in the cell culture media as indicated in Supplementary Table S1 . Cell viability assays were carried out within ten passages of the original vials. The authenticity of the ATCC and DSMZ cell lines has been confirmed by short tandem repeat analysis at both institutions. […]
Intracellular ATP content was used as an indirect readout of cell number using the ATPlite 1Step bioluminescence assay (Revvity, Groningen, the Netherlands). […] After 24 hours of incubation, the starting cell number was determined by adding ATPlite to each well of a control plate and recording luminescence on an Envision multimode reader (Revvity, Waltham, MA, USA) ([4]). […] After incubation for an additional 72 hours, the ATP content was measured in each well using ATPlite. […] Cell doublings were determined by relating the cell number of vehicle-treated controls to the starting cell number for each cell line. […]
Background: In ATP-based viability assays light output follows the ATP content of the culture.

In series [3] the target is T1, MEK1. More on the design: method as in Reiff et al. [15]. The settings on record: 1 mmol/L ATP; ref Reiff et al. [15]; read-out: IC50 in an enzyme assay for MEK1; cited from earlier work.
The target in series [4] is T2, biotinylated, inactive MEK1 (Homo sapiens, UniProt Q02750). Kind of series: biochemical.
Another series has as its target activated B-RAF (Homo sapiens, UniProt P15056). Kind of series: biochemical.
The target in series [5] is T2, biotinylated, inactive MEK1. Kind of series: Surface plasmon resonance binding (Biacore 1S+). The settings on record: SPR. Background: SPR reads the build-up and loss of mass on a sensor chip optically.
The target in a further series is SIK3 (Homo sapiens, UniProt Q9Y2K2). As to the kind of experiment: Kinase enzyme activity assay at 1 mmol/L ATP (Carna).
SIK3, sequence (Q9Y2K2 whole entry): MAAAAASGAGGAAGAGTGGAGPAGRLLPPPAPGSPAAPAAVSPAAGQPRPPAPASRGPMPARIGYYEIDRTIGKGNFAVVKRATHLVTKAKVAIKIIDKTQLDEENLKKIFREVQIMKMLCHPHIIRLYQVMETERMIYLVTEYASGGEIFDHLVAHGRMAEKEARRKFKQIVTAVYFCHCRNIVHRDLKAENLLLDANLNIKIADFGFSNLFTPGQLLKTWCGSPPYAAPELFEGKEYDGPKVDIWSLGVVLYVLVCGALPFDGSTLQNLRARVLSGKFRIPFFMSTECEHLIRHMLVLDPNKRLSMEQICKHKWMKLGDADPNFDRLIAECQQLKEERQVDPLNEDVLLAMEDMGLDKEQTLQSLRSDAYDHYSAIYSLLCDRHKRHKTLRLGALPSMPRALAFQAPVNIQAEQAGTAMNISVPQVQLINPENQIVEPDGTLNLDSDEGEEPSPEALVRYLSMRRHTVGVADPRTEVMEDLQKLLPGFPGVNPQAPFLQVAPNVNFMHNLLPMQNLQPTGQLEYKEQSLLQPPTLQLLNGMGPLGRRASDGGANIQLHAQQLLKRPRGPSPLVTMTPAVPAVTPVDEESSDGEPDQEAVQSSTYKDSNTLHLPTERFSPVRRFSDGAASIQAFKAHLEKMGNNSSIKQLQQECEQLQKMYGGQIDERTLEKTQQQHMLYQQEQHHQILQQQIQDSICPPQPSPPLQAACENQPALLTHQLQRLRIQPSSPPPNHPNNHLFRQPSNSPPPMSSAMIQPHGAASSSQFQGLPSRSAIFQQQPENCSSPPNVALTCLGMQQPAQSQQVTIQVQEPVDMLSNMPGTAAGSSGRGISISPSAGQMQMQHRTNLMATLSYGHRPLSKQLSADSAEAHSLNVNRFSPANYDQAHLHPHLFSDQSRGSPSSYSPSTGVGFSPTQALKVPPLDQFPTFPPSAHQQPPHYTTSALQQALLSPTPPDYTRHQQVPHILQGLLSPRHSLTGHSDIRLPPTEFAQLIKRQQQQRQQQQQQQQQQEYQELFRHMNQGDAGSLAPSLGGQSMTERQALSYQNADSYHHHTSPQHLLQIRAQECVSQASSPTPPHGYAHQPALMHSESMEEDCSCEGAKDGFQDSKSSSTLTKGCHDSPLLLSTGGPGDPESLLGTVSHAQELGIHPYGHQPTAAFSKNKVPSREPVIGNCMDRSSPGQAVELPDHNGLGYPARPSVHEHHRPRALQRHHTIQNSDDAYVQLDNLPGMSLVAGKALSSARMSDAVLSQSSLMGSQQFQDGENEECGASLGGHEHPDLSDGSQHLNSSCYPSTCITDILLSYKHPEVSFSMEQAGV

T1 sequence (Q02750 whole entry): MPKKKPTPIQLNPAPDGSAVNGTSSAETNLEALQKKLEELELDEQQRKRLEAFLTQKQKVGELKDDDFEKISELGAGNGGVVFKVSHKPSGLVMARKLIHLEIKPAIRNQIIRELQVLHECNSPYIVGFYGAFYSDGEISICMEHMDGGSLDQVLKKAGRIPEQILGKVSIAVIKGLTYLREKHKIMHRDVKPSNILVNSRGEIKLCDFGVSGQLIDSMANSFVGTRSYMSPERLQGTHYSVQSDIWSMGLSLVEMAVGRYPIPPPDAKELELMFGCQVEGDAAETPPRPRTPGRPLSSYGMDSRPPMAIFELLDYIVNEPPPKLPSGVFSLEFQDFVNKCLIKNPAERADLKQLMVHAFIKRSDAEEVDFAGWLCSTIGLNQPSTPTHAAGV
T2 sequence (Q02750 whole entry): as above
activated B-RAF, sequence (P15056 whole entry): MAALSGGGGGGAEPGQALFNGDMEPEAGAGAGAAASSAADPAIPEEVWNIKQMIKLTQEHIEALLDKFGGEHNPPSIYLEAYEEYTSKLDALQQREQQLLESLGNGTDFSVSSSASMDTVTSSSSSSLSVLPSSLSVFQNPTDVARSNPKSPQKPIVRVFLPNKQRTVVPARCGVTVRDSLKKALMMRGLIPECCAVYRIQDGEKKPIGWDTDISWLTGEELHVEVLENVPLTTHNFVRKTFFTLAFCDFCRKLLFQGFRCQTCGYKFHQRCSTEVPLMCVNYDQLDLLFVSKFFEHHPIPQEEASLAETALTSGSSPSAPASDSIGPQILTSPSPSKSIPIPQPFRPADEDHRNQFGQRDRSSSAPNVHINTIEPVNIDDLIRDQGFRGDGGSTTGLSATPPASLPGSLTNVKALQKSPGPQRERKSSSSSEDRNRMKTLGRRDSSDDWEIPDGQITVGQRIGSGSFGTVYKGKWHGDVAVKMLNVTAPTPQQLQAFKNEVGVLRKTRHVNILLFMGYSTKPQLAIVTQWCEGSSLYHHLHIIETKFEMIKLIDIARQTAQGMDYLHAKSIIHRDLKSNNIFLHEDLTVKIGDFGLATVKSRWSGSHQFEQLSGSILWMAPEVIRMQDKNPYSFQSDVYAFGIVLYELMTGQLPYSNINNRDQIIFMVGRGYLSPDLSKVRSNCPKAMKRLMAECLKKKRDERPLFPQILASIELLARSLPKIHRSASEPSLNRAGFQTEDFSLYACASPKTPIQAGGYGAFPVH
Experimental for SIK3: Inhibition of MLK1 and B-RAF at K M,ATP was determined in a radiometric assay using ^32P-labeled ATP at Eurofins Cerep SA (Celle-Lévescault, France).

On to `O=C(c1ccc(Oc2ccccc2)cc1Cl)c1c[nH]c2ncnc(N[C@@H]3CC[C@@H](CO)OC3)c12` [nemtabrutinib], for which the IC50 on MEK1 [1] (1 mmol/L ATP, read-out: IC50, MEK1) is 456 nM; against MEK1 [1] (IC50, MEK1), roughly 9 nM; on MEK1 [1] (K M,bin ATP (10 µmol/L ATP), read-out: IC50, MEK1), 8.5 nM and 8.46 nM; on MEK1 [3], 599 nM; against SIK3 it was 9320 nM. The “Extent of inhibition of viability” value in series [2] (SU-DHL-6 and REC-1 cells, dose-response curves) is “almost complete inhibition of viability”. Also, the “Sensitivity of BRAF-mutant versus BRAF wild-type cell lines” value in series [2] (average over cell panel, ANOVA) is listed as “three times higher; also recorded: three times more sensitive”. In addition, the results for the Kd (in series [4]; on activated B-RAF) were 10 nM and 1200 nM, respectively. For the same compound, the “log (kd)” value in series [5] was -3.49. Besides, the “log(ka)” value in series [5] is 4.50. The compound also came in with a t1/2 in series [5] of 35.67 min.
